Laboratory results reported in BindingDB's records for doi:10.1016/j.ejmech.2023.115404 (Southwest Jiaotong University, 2023).

Target: Dual leucine zipper kinase (MAP3K12) (Homo sapiens)
Assay: Binding affinity to DLK (unknown origin) assessed as inhibition constant

Ki [nM]	SMILES
33	CC(=O)N1CCC(c2cc(Nc3cc(C(F)(F)F)ccn3)nc(N3CCC(F)(F)C3)n2)CC1
145	CC(C)n1nc(Nc2cc(C(F)(F)F)ccn2)cc1C1CCNCC1
